# Reference: patent US5843916A, “Cyclic amp analogues, individually and in pairs, to inhibit neoplastic cell growth” (priority 1994, dated 1998)
# pIC50: −log10 of the molar value. Where two headings read alike, the source gives them in different places.
# Key:
# cells = assay: Growth inhibition by 8-Cl-AMP; assay type: cell-based; details: as high as 100 μM
# [1] = tested on: p21 ras protein, MCF-7 cells; assay: Western blotting of p21 ras protein (Table 11, FIG. 7); assay type: cell-based, human
# Method: Western blotting of p21 protein was performed as described below. […] V is cell lysate from Ha-MuSV-transformed NIH3T3 clone 13-3B-4. M, marker proteins of known molecular weight.
# Each lane contained 100 micrograms of protein for SDS-PAGE.
# Cellular proteins present in cell extracts were separated by 12% SDS-PAGE and transferred to nitrocellulose sheets in transfer buffer (25 mM Tris, 192 mM glycine, 20% methanol, pH 7.4). Nitrocellulose sheets were washed and first incubated with 3% bovine serum albumin in NTE-NP40 (50 mM Tris-HCl, pH 7.5, 150 mM NaCl, 2 mM EDTA, 0.1% Nonidet P-40) for three hours at 37° C. and then sequentially incubated with medium containing p21 monoclonal antiserum Y13-259 directed against the Ha-MuSV-encoded p21 for sixteen hours at 4° C., rabbit anti-rat IgG for 2.5 hours in an ice water bath, and 5×10^5 cpm/ml ^125 I-protein A for one hour in an ice water bath. The nitrocellulose sheets were air dried and exposed to Kodak XAR film for 12-36 hours at -20° C. Comparison of the resulting autoradiograms with others in which normal rat serum was substituted for p21 monoclonal antibody permitted identification of p21. To provide a reference p21, cell lysates were prepared from NIH 3T3 clone 13-3B-4 that had been transfected with HaMuSV DNA.
# The levels of p21 protein are expressed relative to the p21 level in the untreated control cells which is set equal to 1.0 O.D.
# [2] = tested on: RI cAMP receptor protein, Molt-4 leukemic cells; assay: Photoaffinity labelling of RI cAMP receptor protein (FIG. 9A); assay type: cell-based, human; details: three days; 8-Cl-cAMP 5 μM, DBcAMP 1 mM, 8-Cl-adenosine 5 μM
# [3] = tested on: c-myc protein, Molt-4 leukemic cells; assay: Western blotting of c-myc protein (FIG. 9B); assay type: cell-based, human; details: three days; 8-Cl-cAMP 5 μM, DBcAMP 1 mM, 8-Cl-adenosine 5 μM
# Method: The cells were grown in suspension culture in RPMI 1640 medium supplemented with 10% fetal bovine serum, penicillin (50 U/ml), streptomycin (500 μg/mL), 10 mM HEPES buffer, and extra glutamine. […] Surface antigen analysis of HL-60 cells was performed by flow cytometry using a panel of monoclonal antibodies reactive with either myeloid cells or monocytic cells. Terminal deoxynucleotidyl transferase (TdT) was assayed by an immunoperoxidase method using a TdT fluorescence kit. Western blotting of c-myc protein was performed using c-myc antibody 15206D11 (Scripps Clinic and Research Foundation, LaJolla, Calif.).
# M, marker proteins of known molecular weight. […] The resulting supernatants were used as cell lysates. […] ND=nondetectable.
# MCF-7 = assay: Growth of MCF-7 cells (Tables 3, 11); assay type: cell-based; details: Homo sapiens, MCF7, 72 h, Table 11; 8-Cl-cAMP 10 μM, 8-Cl-adenosine 5 μM, DBcAMP 500 μM; control 100
# Method: (§1) All breast cancer cell lines were grown in IMEM supplemented with 10% fetal bovine serum, HEPES 20 mM, penicillin-streptomycin, and extra glutamine. Colon carcinoma cell lines were grown in EMEM supplemented with 10% FBS, EMEM, NEAA, HEPES 20 mM, extra glutamine, and penicillin-streptomycin. The cells were grown at 37° C. in humidified incubators in an atmosphere of 5% CO2.
# (§2) For cell growth experiments, 2-3×10^5 cells/60 mm dish were seeded, and 24 hours later (Day 0), the medium was removed, and fresh medium and the additives were added then and every 48 hours thereafter. The compounds of the present invention were added using 100X concentrated stock solutions. At desired times, cell counts in duplicate were performed on a Coulter counter after harvesting the cells with gentle trypsinization.
# [4] = tested on: LS-174T colon cancer line; assay: Growth and release from growth inhibition (FIG. 3); assay type: cell-based, human; details: 5 μM
# Method: 1×10^5 cells/60 mm dish were seeded, and 24 hours later (Day 0), the medium was removed and fresh medium and additives were added then and every 48 hours thereafter. […] The triplicate cell count for each experimental point never varied by more than 10%.
# LS-174T = assay: Cell cycle analysis by flow cytometry (Table 3); assay type: cell-based, human; details: 5 μM; 3 days
# Method: (§3) DNA histograms were generated on FACS II by using the DNA intercalating dye propidium iodide as described by Braylan et al. in Cytometry 2: 337-343, 1982. The percentage of cells in each cycle phase was calculated by using a PDP-11/34 computer and software as described by Neckers et al., Mol. Cell. Biol. 6: 4244-4250, 1986.
# (§4) Breast (MCF-7, MDA-MB-231) and colon (LS-174T) cancer cells in log
# (§5) phase (untreated control) and 3 days after treatment with 8-C1-cAMP
# (§6) (10 μM), N^6 -benzyl-cAMP (35 μM), and 8-Cl-adenosine (5
# (§7) were analyzed for DNA content by flow cytometric analysis as described
# (§8) below. Similar results were obtained with other breast and colon cancer
# ^a The paired numbers were derived from two separate experiments.
# MDA-MB-231 [5] = assay: Growth of MDA-MB-231 cells (Tables 3, 10); assay type: cell-based; details: Homo sapiens, MDA-MB-231, 72 h, 3 days, control 100 (Table 3)
# Method: as §1, §2
# [6] = tested on: four leukemic cell lines (HL-60, K-562, myc-K562, Molt-4); assay: Growth inhibition of leukemic cell lines; assay type: cell-based, human; details: Homo sapiens; leukemic cell lines, range
# [7] = tested on: breast and colon cancer cells; assay: Effect on cell morphology (FIG. 2); assay type: cell-based, human
# Excerpt: The photographs were taken on Day 4, ×160.
# Furthermore, the synergistic growth inhibitory effect of C-6 and C-8 analogue combinations was also reflected in the change in the cell morphology.
# myc-K562 = assay: Growth inhibition of leukemic cells (Table 12); assay type: cell-based; details: Homo sapiens
# [8] = tested on: breast and colon cancer lines (MCF-7, T-47D, ZR-75-1, MCF-7ras, MDA-MB-231, BT-20, HBL-100, LS-174T, WiDr, HT-29); assay: Growth inhibition of breast and colon cancer lines (FIG. 1); assay type: cell-based, human; details: densitometry text
# MDA-MB-231 [9] = assay: Cell cycle analysis by flow cytometry (Table 3); assay type: cell-based, human; details: 35 μM; 3 days
# Method: as §3, §4, §5, §6, §7, §8
# HL-60 Cells = assay: Cell cycle kinetics of HL-60 cells (Table 17); assay type: cell-based, human; details: 10 μM, 96 hours
# Method: Briefly, cells were fixed in 70% ethanol and stored at 4° C. before analysis. Nuclear DNA was stained with propidium iodide, 50 μg/ml in phosphate-buffered saline (pH 7.4), for 30 minutes at room temperature. RNase was added to avoid double-helix RNA staining. The DNA content of cells was analyzed by a FACScan flow cytometer coupled with a Hewlett-Packard computer. Cell cycle data analysis was performed by a Cell-FIT program according to the method of Dean (Cell Tissue Kinet. 13: 299-308 (1980)) (Becton Dickinson Immunocytometry Systems). Pulse area versus pulse width gating was performed to exclude doublets from the G2 -M region. For each sample, 20,000 events were stored in list mode. Cell surface antigen analysis was performed by flow cytometry with FACScan using a panel of monoclonal antibodies reactive with either monocytic or myeloid cells.
# [10] = tested on: RI and RII cAMP receptor proteins, LS-174T; assay: Photoaffinity labelling of cAMP receptor proteins (Table 10, FIG. 6); assay type: cell-based, human; details: 3 days, 8-Cl and N^6-benzyl 10 μM, dibutyryl 1 mM
# Method: (§9) Photoactivated incorporation of 8-N3 [^32 P] was performed as described below.
# (§10) M is marker proteins of known molecular weight.
# (§11) Each lane contained 50 micrograms protein for SDS-PAGE.
# (§12) The incubations were carried out at 23° C. for 60 minutes in 96-well immunoplates. The reaction mixtures were then irradiated for 30 seconds at 254 nm, placing a Mineralite UVS-11 hand lamp directly onto the plate. The samples were mixed with 25 microliters of 3× sample buffer (3% SDS, 15% beta-mercaptoethanol, 30 mM Tris, 30% glycerol, 1% bromophenol blue saturated solution), boiled for 3 minutes, and centrifuged at 700 × g for five minutes. The samples containing 10-30 micrograms of protein were subjected to 0.05% SDS-12% PAGE. The gels were fixed, dried, and exposed to X-ray films overnight. The protein concentrations were determined by the method of Lowry et al., J. Biol. Chem. 193: 265-275, 1951, with bovine serum albumin as standard.
# (§13) The levels of the receptor proteins are expressed relative to the RI level in the untreated control cells of MDA-MB-231 and LS-174T which are each set equal to 1.0 O.D.; the scale was expanded to differentiate the lower intensity bands.
# [11] = tested on: RI and RII cAMP receptor proteins, MDA-MB-231; assay: as above; assay type: cell-based, human; details: 3 days, 8-Cl and N^6-benzyl 10 μM, dibutyryl 1 mM
# Method: as §9, §10, §11, §12, §13
# [12] = tested on: RI and RII cAMP receptor proteins, breast (MDA-MB-231) and colon (LS-174T) cancer cells; assay: cAMP receptor protein levels, breast and colon cancer cells (FIG. 6); assay type: cell-based, human
# Method: as §9, §10
# The incubations were carried out at 23° C. for 60 minutes in 96-well immunoplates. […] The gels were fixed, dried, and exposed to X-ray films overnight.
# Molt-4 = assay: Growth inhibition of leukemic cells (Table 12); assay type: cell-based, human; details: Homo sapiens, MOLT-4; read-out: Inhibition of Growth IC50, Molt-4
# K-562 = assay: Growth inhibition of leukemic cells (Table 12); assay type: cell-based; details: Homo sapiens, K562
# [13] = tested on: breast (MCF-7) and colon (LS-174T) cancer cell lines; assay: Growth inhibition of breast and colon cancer cells (Table 1); assay type: cell-based, human; details: Homo sapiens
# Method: The compounds of the present invention were added using 100X concentrated stock solutions. At desired times, cell counts in duplicate were performed on a Coulter counter after harvesting the cells with gentle trypsinization. […] Cell counts were performed on each of three or more separate experiments, and the average values are expressed as percent growth inhibition as compared with untreated control cells. | ^a The values of percentage growth inhibition were determined from th | doseresponse curve experiments. Each value represents an average value an | range (in parentheses) obtained from three or more separate experiments. | The cell counts in duplicate were performed at day 3 and day 4 after two | treatments (day 0 and day 2) with analogs (seeding on day -1).
# HL-60 = assay: Growth inhibition of leukemic cells (Table 12); assay type: cell-based; details: Homo sapiens
compound,measurement,setting,value
Nc1ncnc2c1nc(Cl)n2[C@@H]1O[C@H](COP(=O)(O)O)[C@@H](O)[C@H]1O [8-Cl-AMP],growth inhibition,cells,no appreciable growth inhibition
Nc1ncnc2c1nc(Cl)n2[C@@H]1O[C@H](CO)[C@@H](O)[C@H]1O [8-Cl-adenosine],p21 (Relative Level),"[1]; 3 days, 8-Cl-cAMP 10 μM, 8-Cl-adenosine 5 μM, DBcAMP 500 μM, control = 1.0 O.D.",1.0 ± 0.1
same,p21 level,[1]; three days,did not appreciably affect the p21 level
same,RI receptor protein level,[2],not observed
same,c-myc protein level,[3],not observed
same,activity at 5 µM,MCF-7,38%
same,cell growth after release from treatment,[4],did not resume their growth up to two weeks after the release from the treatment
same,cell growth during treatment,[4],marked reduction in cell growth and eventually stopped replicating within three to four days
same,cell cycle phase distribution,LS-174T,appreciable increase of the cell population in G1 phase with a marked reduction in S-phase
O=P1(O)OC[C@H]2O[C@@H](n3cnc4c(NCc5ccccc5)ncnc43)[C@H](O)[C@@H]2O1 [N^6 -benzyl-cAMP],activity at 35 µM,MDA-MB-231 [5],45%
same,pIC50,[6],4.52 to 5.00
same,cell morphology,"[7]; 0.5 μM alone, four days",did not induce a change in the cell morphology
same,cell morphology,"[7]; 50 μM, three to four days",induced the morphological change
same,pIC50,myc-K562,4.52
same,growth inhibition of cancer lines,[8],45-70%
same,% Cell Population in G1,MDA-MB-231 [9],60%
same,% Cell Population in G2M,MDA-MB-231 [9],15%
same,% Cell Population in S,MDA-MB-231 [9],25%
same,cell cycle phase distribution,MDA-MB-231 [9],not appreciably different
same,% G2 M,HL-60 Cells; control 8.3,9.6%
same,% G0-G1,HL-60 Cells; control 45.7,44.4%
same,% S,HL-60 Cells; control 46,46%
same,RII/RI,[10],1.25
same,relative level of RI,[10]; control RI = 1.0 O.D.,0.20 ± 0.02
same,relative level of RII,[10]; control RI = 1.0 O.D.,0.25 ± 0.02
same,RII/RI,[11],0.28
same,relative level of RI,[11]; control RI = 1.0 O.D.,0.25 ± 0.03
same,relative level of RII,[11]; control RI = 1.0 O.D.,0.07 ± 0.01
same,decrease in the RI level,[12]; densitometric tracings,70-80%
same,increase in the ratio of RII to RI,[12]; densitometric tracings,two- to three-fold increase
same,RI and RII receptor levels,"[12]; three days, FIG. 6","the cAMP receptor protein with a molecular weight of 52,000 increased appreciably with concomitant decrease of the 48,000 RI receptor protein"
same,pIC50,Molt-4,5.00
same,pIC50,K-562,4.57
same,inhibition at 50 µM,"[13]; 72 h, 50 μM, day 3, average (range), read-out: % Growth Inhibition, Day 3",56%
same,inhibition at 50 µM,"[13]; 96 h, 50 μM, day 4, average (range), read-out: % Growth Inhibition, Day 4",70%
same,inhibition at 50 µM,"[13]; 50 micromolar, read-out: growth inhibition",30 to 70%
same,pIC50,HL-60,4.70
